Molecular target: GFPxm163 (Aequorea macrodactyla, UniProt Q8WTC8)
Experiment: fluorescence quenching titration
Type: binding

Chain of GFPxm163 (Q8WTC8 1-238): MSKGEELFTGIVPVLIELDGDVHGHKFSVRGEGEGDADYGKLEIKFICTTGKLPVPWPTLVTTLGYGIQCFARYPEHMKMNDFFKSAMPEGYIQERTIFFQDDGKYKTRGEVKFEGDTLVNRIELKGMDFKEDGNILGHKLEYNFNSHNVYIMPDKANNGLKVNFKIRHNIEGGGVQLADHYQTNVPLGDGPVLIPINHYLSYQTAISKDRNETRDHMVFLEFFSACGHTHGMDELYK

| Kd | Compound |
| --- | --- |
| 46.2 ± 5.3 mM | Br [bromide] |
| 6.4 ± 0.1 mM | I [iodide] |

| Compound | Kd |
| --- | --- |
| O=[N+]([O-])O [nitrate] | 24.1 ± 0.8 mM |

From PMC9645410 (Chemical Science, 2022)
